# Experimental data taken from patent US20240239802A1, “CRYSTAL FORM OF PYRROLOPYRIMIDINE COMPOUND AND PREPARATION METHOD FOR CRYSTAL FORM” (ZHEJIANG LONGCHARM BIO-TECH PHARMA. CO., LTD., priority 2021, published 2024).
# Legend:
# [1] = Pharmacokinetics (intravenous) in SD rats; type: in vivo; conditions: for AUCu: 0.51 / 0.49 mg/kg, AUCu = AUC0-inf × Unbound PPB (Rat in vivo test PPB)
# Description: (§1) The compound of formula (I) and the reference example were mixed with vehicle 0.10 mg/mL in 10% NMP/60% PEG400/30% H2O, vortexed and sonicated to prepare a 0.5 mg/mL clear solution. SD rats aged 7 to 10 weeks were selected and given the candidate compound solution intravenously. Whole blood was collected for a certain period of time to prepare plasma, and the drug concentration was analyzed by LC-MS/MS. Pharmacokinetic parameters were calculated with Phoenix WinNonlin software (Pharsight, USA).
# [2] = Pharmacokinetics (oral) in SD rats; type: in vivo; conditions: for AUCu: 1.9 / 1.8 mg/kg, AUCu = AUC0-inf × Unbound PPB (Rat in vivo test PPB)
# Description: The compound of formula (I) and the reference example were mixed with vehicle 10% NMP/60% PEG400/30% H2O, vortexed and sonicated to prepare a 2 mg/mL clear solution. SD rats aged 7 to 10 weeks were selected, and the candidate compound solution was administered orally.
# Whole blood was collected for a certain period of time to prepare plasma, and the drug concentration was analyzed by LC-MS/MS method, and the pharmacokinetic parameters were calculated by Phoenix WinNonlin software (Pharsight, USA).
# [3] = Unbound PPB (Rat in vivo test PPB); type: in vitro ADME
# Unbound PPB (Mouse) = type: in vitro ADME
# [4] = Pharmacokinetics (oral administration) in CD-1 mice; type: in vivo; conditions: for AUCu: AUCu = AUC0-inf × Unbound PPB (Mouse)
# Description: as §1, with “vehicle” for “vehicle 0.10 mg/mL in”, “0.6” for “0.5”, “Male CD-1 mice” for “SD rats”, “selected,” for “selected”, “and” for “and given”, “was administered orally by gavage at a dose of 3.1 mg/kg.” for “intravenously.”
# BTK^C481S = BTK^C481S (Homo sapiens (Human), UniProt Q06187, C481S); assay: BTK enzyme activity test (33P-ATP filtration-binding); type: biochemical
# Sequence of BTK^C481S (Q06187 whole entry C481S): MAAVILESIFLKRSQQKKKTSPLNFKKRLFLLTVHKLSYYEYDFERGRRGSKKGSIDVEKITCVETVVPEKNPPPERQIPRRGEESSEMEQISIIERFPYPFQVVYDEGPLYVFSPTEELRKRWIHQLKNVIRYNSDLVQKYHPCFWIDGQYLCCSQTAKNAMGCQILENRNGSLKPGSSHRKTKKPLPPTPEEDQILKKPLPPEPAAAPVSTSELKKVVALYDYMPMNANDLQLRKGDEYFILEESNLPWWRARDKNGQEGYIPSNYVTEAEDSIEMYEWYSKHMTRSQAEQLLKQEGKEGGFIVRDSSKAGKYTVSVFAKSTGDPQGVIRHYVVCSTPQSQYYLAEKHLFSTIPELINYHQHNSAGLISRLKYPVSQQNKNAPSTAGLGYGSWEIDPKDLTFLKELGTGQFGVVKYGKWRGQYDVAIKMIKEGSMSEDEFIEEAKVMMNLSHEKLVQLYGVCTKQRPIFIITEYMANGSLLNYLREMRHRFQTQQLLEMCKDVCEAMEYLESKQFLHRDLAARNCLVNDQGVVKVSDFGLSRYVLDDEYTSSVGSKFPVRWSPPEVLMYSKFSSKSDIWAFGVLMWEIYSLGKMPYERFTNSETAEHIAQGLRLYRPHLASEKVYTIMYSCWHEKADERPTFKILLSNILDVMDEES
# Description: The specific experimental process of BTK enzyme activity test is as follows:
# Buffer: 20 mM hydroxyethylpiperazine ethylsulfuric acid (Hepes) (pH 7.5), 10 mM magnesium chloride, 1 mM ethylene glycol bisaminoethyl ether tetraacetic acid (EGTA), 0.02% polyoxyethylene lauryl ether (Brij35), 0.02 mg/mL BSA, 0.1 mM sodium vanadate (Na3VO4), 2 mM dithiothreitol (DTT), 1% DMSO, 200 μM adenosine triphosphate (ATP).
# 1. Configuring the substrate in the newly prepared reaction buffer
# 2. Adding the required cofactors to the above substrate solution
# 3. Adding the kinase BTK^C481S to the above substrate solution and mixing well
# 4. Adding the compound dissolved in DMSO to the kinase reaction mixture through
# Echo550 (Acoustic technology; nanoliter range), and incubating at room temperature for 20 minutes
# 5. Adding ^33P-ATP (with a specific activity of 10 μCi/μL) into the reaction mixture to initiate the reaction
# 6. Incubating at room temperature for 2 hours
# 7. Detection of radioactivity by filtration-binding method
# 8. Kinase activity data represent the percentage of remaining kinase activity in the test sample compared to the vehicle (dimethyl sulfoxide) reaction.
# [5] = Pharmacokinetics (intravenous) in CD-1 mice; type: in vivo; conditions: for AUCu: AUCu = AUC0-inf × Unbound PPB (Mouse)
# Description: The compound of formula (I) and the reference example were mixed with vehicle 0.10 mg/mL in 10% NMP/60% PEG400/30% H2O, vortexed and sonicated to prepare a 0.1 mg/mL clear solution. Select CD-1 male mice aged 7 to 10 weeks and administer the candidate compound solution intravenously at a dose of 0.21 mg/kg.
# The whole blood was collected for a certain period of time to prepare plasma, and the drug concentration was analyzed by LC-MS/MS method. Pharmacokinetic parameters were calculated by Phoenix WinNonlin software (Pharsight, USA).
# [6] = Hygroscopicity research by dynamic vapor adsorption (DVS); type: physicochemical; conditions: 25° C. and 80% RH
# Description: The vapor adsorption analysis (DVS) method of this application.
# Instrument model: SMS DVS Advantage dynamic vapor adsorption instrument
# Test conditions: Take a sample (10-15 mg) and place it in a DVS sample tray for testing.
# The detailed DVS parameters are as follows:
# Balance: dm/dt=0.01%/min (shortest: 10 min, longest: 180 min)
# RH (%) test range: 0%-90%-0%
# SMS DVS Advantage dynamic vapor adsorption instrument
# Taking 10-15 mg of compound crystal form C of formula (I) and placing it in a DVS sample tray for testing.
# [7] = Competitive experiment of crystal form B and crystal form C (suspension in methyl tert-butyl ether); type: physicochemical
# Description: Three groups of 30 mg crystal form B and 30 mg crystal form C compounds were respectively added to different 2.0 mL glass vials, and 0.6 mL methyl tert-butyl ether was added to obtain a suspension, and the suspension samples were placed in the magnetic heating stirrer was stirred at 20° C., 40° C. and 60° C. for 16 hours, the suspension was centrifuged to obtain a white solid, and the crystal form C of the compound of formula (I) was obtained by vacuum drying to constant weight.
# [8] = Solid stability test (XRPD) under high temperature, high humidity and strong light; type: physicochemical
# Description: According to the “Guiding Principles for Stability Testing of Raw Materials and Preparations” (Chinese Pharmacopoeia 2015 Edition Four General Rules 9001), the crystal form C of the compound of formula (I) was investigated for its stability under high temperature (60° C., open), high humidity (a. room temperature/relative humidity 92.5%, open; b. 40° C./75% relative humidity, open; c. 60° C./75% relative humidity, open) and the stability under strong light (5000 1×, airtight).
# The crystal form C (15 mg) of the compound of formula (I) is weighed and placed on the bottom of the glass sample bottle to be spread into a thin layer. Samples placed under high-temperature and high-humidity conditions are sealed with aluminum foil, and small holes are formed on the aluminum foil to ensure that the samples can fully contact with the ambient air; and the sample placed under the strong illumination condition is sealed by a threaded bottle cap. Samples placed under different conditions were sampled and tested (XRPD) on the 5th day, 10th day, and 1 month. The test results were compared with the initial test results on day 0.
# [9] = tested on: human B-cell lymphoma OCI-LY10 cells; assay: OCI-LY10 SCID mouse subcutaneous xenograft tumor model; type: in vivo, SCID mice; conditions: for T/C / TGI: Day 20; for Tumor volume (Day 0) / Tumor volume (Day 20): Mean ± SEM
# Description: OCI-LY10SCID mouse xenograft tumor model:
# Experimental Method: Subcutaneous Xenograft Tumor Model in Mice with Human B-Cell Lymphoma
# Tumor cells in the logarithmic growth phase were collected and resuspended in IMDM basal medium. Matrigel was added to adjust the concentration of cells to 4×10^7/Ml. Under sterile conditions, SCID mice were inoculate with cell suspension subcutaneously on the right back at a concentration of 4×10^6/0.1 mL/mouse. When the animal tumor reached about 131.55-227.87 mm^3, the tumor-bearing mice were divided into 5 groups according to the size of the tumor volume, with 8 […] in each group. On the day of the experiment, the animals were given corresponding drugs according to the groups.
# During the experiment, the body weight and tumor size of the animals were measured 3 times a week, and the clinical symptoms of the animals were observed and recorded every day, and each administration was referred to the last weighed animal body weight.
# The length (a) and width (b) of the tumor were measured with a digital vernier caliper, and tumor volume (Tumor volume, TV) was calculated according to the formula below: […]
# [10] = rat, plasma, SD rats, 0.51 mg/kg (Reference Example) / 0.49 mg/kg (Compound of Formula (I))
# [11] = rat, plasma, SD rats, 1.9 mg/kg (Reference Example) / 1.8 mg/kg (Compound of Formula (I))
# [12] = mouse, plasma, 3.1 mg/kg, CD-1 male mice
# [13] = mouse, plasma, 0.21 mg/kg, CD-1 male mice
structure (smiles),measurement,setting,value
CO[C@@H]1C[C@@H](CO)OC[C@@H]1Nc1ncnc2[nH]cc(C(=O)c3ccc(Oc4ccccc4)cc3Cl)c12 [Compound of formula (I)],"Free drug concentration in rat plasma, conclusion",[1],higher than that of the reference compound
same,AUCu,[1]; SD rats,0.0034 µM·h
same,"Free drug concentration in rat plasma, conclusion",[2],higher than that of the reference compound
same,AUCu,[2]; SD rats,0.0078 µM·h
same,Unbound PPB,[3]; Table 12,0.2%
same,Unbound PPB,[3]; Table 13,0.2%
same,Unbound PPB,Unbound PPB (Mouse); Table 10,0.4%
same,Unbound PPB,Unbound PPB (Mouse); Table 11,0.4%
same,"Free drug concentration in mouse plasma, conclusion",[4],higher than that of the reference compound
same,AUCu,"[4]; 3.1 mg/kg, CD-1 male mice",0.133 µM·h
same,"Inhibitory effect on BTK C481S mutation, conclusion",BTK^C481S,strong inhibitory effect
same,"Free drug concentration in mouse plasma, conclusion",[5],higher than that of the reference compound
same,AUCu,"[5]; 0.21 mg/kg, CD-1 male mice",0.0124 µM·h
CO[C@@H]1C[C@@H](CO)OC[C@@H]1Nc1ncnc2[nH]cc(C(=O)c3ccc(Oc4ccccc4)cc3Cl)c12 [Form C],Hygroscopicity classification,[6],slightly hygroscopic (2% > ΔW % ≥ 0.2%)
same,ΔW (hygroscopic weight gain),[6]; DVS,0.262%
same,"Relative stability compared with Form B, conclusion",[7],"Conclusion: Compared with Form B, Form C is more stable."
same,Crystal Form (XRPD),"[8]; 0 day, initial",Form C
same,Crystal Form (XRPD),"[8]; High humidity (40° C./75% relative humidity, open), 1 month",Form C
same,Crystal Form (XRPD),"[8]; High humidity (60° C./75% relative humidity, open), 1 month",Form C
same,Crystal Form (XRPD),"[8]; High humidity (room temperature/relative humidity 92.5%, open), 5th day",Form C
same,Crystal Form (XRPD),"[8]; High humidity (room temperature/relative humidity 92.5%, open), 10th day",Form C
same,Crystal Form (XRPD),"[8]; High temperature (60° C., open), 5th day",Form C
same,Crystal Form (XRPD),"[8]; High temperature (60° C., open), 10th day",Form C
same,Crystal Form (XRPD),"[8]; Strong light (5000 lx, airtight), 10th day",Form C
same,"Solid stability, conclusion","[8]; high temperature, high humidity and strong light conditions","Conclusion: The crystal form C of the compound of formula (I) has good stability under high temperature, high humidity and strong light conditions."
same,T/C,[9]; 15 mg/kg PO QD × 21,65.50%
same,TGI,[9]; 15 mg/kg PO QD × 21,49.61%
same,Tumor volume (Day 0),[9]; 15 mg/kg PO QD × 21,182.02 ± 9.76 mm^3
same,Tumor volume (Day 20),[9]; 15 mg/kg PO QD × 21,471.07 ± 16.55 mm^3
same,T/C,[9]; 30 mg/kg PO QD × 21,45.05%
same,TGI,[9]; 30 mg/kg PO QD × 21,71.75%
same,Tumor volume (Day 0),[9]; 30 mg/kg PO QD × 21,180.91 ± 9.67 mm^3
same,Tumor volume (Day 20),[9]; 30 mg/kg PO QD × 21,342.95 ± 20.06 mm^3
same,T/C,[9]; 45 mg/kg PO QD × 21,29.25%
same,TGI,[9]; 45 mg/kg PO QD × 21,92.82%
same,Tumor volume (Day 0),[9]; 45 mg/kg PO QD × 21,180.19 ± 10.07 mm^3
same,Tumor volume (Day 20),[9]; 45 mg/kg PO QD × 21,221.38 ± 37.11 mm^3
same,"Tumor inhibitory effect versus reference compound, conclusion",[9]; at the same dose,obviously better than that of reference compound
same,"Tumor growth inhibition, conclusion",[9]; inhibitory effect positively correlated with dose,significantly inhibit tumor growth
O=C(c1ccc(Oc2ccccc2)cc1Cl)c1c[nH]c2ncnc(N[C@@H]3CC[C@@H](CO)OC3)c12 [Reference Example],AUCu,[1]; SD rats,0.0019 µM·h
same,AUC(0-inf),[1]; [10],1.92 µM·h
same,C0,[1]; [10],800 nM
same,Vd,[1]; [10],1.57 L/kg
same,clearance,[1]; [10],9.08 mL/min/kg
same,half-life,[1]; [10],2.02 h
same,AUCu,[2]; SD rats,0.005 µM·h
same,AUC(0-inf),[2]; [11],5.03 µM·h
same,Cmax,[2]; [11],607 nM
same,half-life,[2]; [11],2.41 h
same,Unbound PPB,[3]; Table 12,0.1%
same,Unbound PPB,[3]; Table 13,0.1%
same,Unbound PPB,Unbound PPB (Mouse); Table 10,0.2%
same,Unbound PPB,Unbound PPB (Mouse); Table 11,0.2%
same,AUCu,"[4]; 3.1 mg/kg, CD-1 male mice",0.0882 µM·h
same,AUC(0-inf),[4]; [12],44.1 µM·h
same,Cmax,[4]; [12],3840 nM
same,half-life,[4]; [12],3.75 h
same,AUCu,"[5]; 0.21 mg/kg, CD-1 male mice",0.007 µM·h
same,AUC(0-inf),[5]; [13],3.49 µM·h
same,C0,[5]; [13],1040 nM
same,Vd,[5]; [13],0.7 L/kg
same,clearance,[5]; [13],2.01 mL/min/kg
same,half-life,[5]; [13],4.34 h
same,T/C,[9]; 45 mg/kg PO QD × 21,42.45%
same,TGI,[9]; 45 mg/kg PO QD × 21,74.47%
same,Tumor volume (Day 0),[9]; 45 mg/kg PO QD × 21,183.86 ± 9.48 mm^3
same,Tumor volume (Day 20),[9]; 45 mg/kg PO QD × 21,330.27 ± 19.35 mm^3
